Measurements published in US20110152236A1 (SANOFI-AVENTIS, priority 2008, published 2011).

Experiments:
[1] = molecular target: T1, cannabinoid CB1 receptor (Mus musculus, UniProt P47746); assay: model of inhibition of gastrointestinal transit induced by racemic CP55,940 in mice; type: in vivo; conditions: 1 mg/kg per os; 3 hours after administration of the product; CP55,940 0.15 mg/kg ip; male CD1 mice
T1 construct: from tissue; host or cells: whole animal (mice; male CD1 mice in the gastrointestinal transit model)
Method: The antagonistic activity of the compounds was also shown by means of the model of inhibition of gastrointestinal transit induced by racemic CP55,940 (1RS,3RS,4RS-3-[hydroxy-2-(1,1-dimethylheptyl)phenyl]-4-(3-hydroxypropyl)cyclohexan-1-ol) in mice, according to the method described by Rinaldi-Carmona et al., J. Pharmacol, Exp. Ther. 2004, 310, 905-914. Briefly, male CD1 mice receive the test product per os 30 minutes or 2 hours before administration of the racemic CP55,940 agonist (1RS,3RS,4RS-3-[hydroxy-2-(1,1-dimethylheptyl)phenyl]-4-(3-hydroxypropyl)cyclohexan-1-ol) (0.15 mg/kg ip in 10% Cremophor). After a further 30 minutes, the animals receive a charcoal bolus po. Thirty minutes later, the animals are euthanized (CO2/O2) and the intestine is dissected. The progression of the charcoal bolus in the intestine is expressed as percentage of the total length of the intestine.

[2] = molecular target: T1, cannabinoid CB1 receptor; assay: model of hypothermia induced by cannabinoid CB1 receptor agonist racemic CP55,940 in mice; type: in vivo; conditions: 3 mg/kg po, hypothermia induced by CP55,940 1.25 mg/kg
Method: Other tests consisting in measuring the in vivo activity of the compounds of the invention were carried out. The antagonist activity of said compounds was shown by means of the model of hypothermia induced by a cannabinoid CB1 receptor agonist (racemic CP55,940 (1RS,3RS,4RS)-3-[hydroxy-2-(1,1-dimethylheptyl)phenyl]-4-(3-hydroxypropypcyclohexan-1-ol) at a dose of 1.25 mg/kg, in mice, according to the method described by R. G. Pertwee in Marijuana 84, Harvey D. J. eds, Oxford IRL Press, 263-277 (1985).

[3] = molecular target: T2, human CB1 receptor (Homo sapiens, UniProt P21554); assay: intracellular cyclic AMP test in U373MG cells (HTRF cAMP Dynamic Kit); type: cell-based; conditions: U373MG cells naturally expressing the human CB1 receptor; intracellular cyclic AMP; read-out: IC50
T2 construct: U373MG cells naturally expressing the human CB1 receptor; endogenous in cells; host or cells: U373MG cells
Method: The compounds according to the invention were the subject of pharmacological tests for determining the activity with respect to human cannabinoid CB1-type receptors. The efficacy of the compounds of formula (I) was determined in a functional test which measures cannabinoid CB1 receptor activity (intracellular cyclic AMP test). The test for detecting intracellular cyclic AMP in U373MG cells naturally expressing the human CB1 receptor was carried out as described in the following reference: Bouaboula et al., 1995, J. Biol. Chem. 270:13973-13980. The HTRF cAMP Dynamic Kit from CisBio was used to quantify the intracellular cyclic AMP. In this test, the IC50 values are between 0.001 μM and 2 μM.

T1 sequence (P47746 whole entry): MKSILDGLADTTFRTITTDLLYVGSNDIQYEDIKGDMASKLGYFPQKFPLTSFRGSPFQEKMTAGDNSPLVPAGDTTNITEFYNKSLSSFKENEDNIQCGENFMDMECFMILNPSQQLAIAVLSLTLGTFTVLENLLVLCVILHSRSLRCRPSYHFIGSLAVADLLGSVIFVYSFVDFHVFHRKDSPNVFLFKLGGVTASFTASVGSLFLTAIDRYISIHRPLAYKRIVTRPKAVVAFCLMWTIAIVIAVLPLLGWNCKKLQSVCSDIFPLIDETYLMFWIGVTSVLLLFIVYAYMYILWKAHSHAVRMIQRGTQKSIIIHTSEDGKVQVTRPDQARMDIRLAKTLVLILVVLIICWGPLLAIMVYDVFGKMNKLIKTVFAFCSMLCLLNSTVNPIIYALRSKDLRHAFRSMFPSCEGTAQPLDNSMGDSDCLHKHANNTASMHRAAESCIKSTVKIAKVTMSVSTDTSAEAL
T2 sequence (P21554 whole entry): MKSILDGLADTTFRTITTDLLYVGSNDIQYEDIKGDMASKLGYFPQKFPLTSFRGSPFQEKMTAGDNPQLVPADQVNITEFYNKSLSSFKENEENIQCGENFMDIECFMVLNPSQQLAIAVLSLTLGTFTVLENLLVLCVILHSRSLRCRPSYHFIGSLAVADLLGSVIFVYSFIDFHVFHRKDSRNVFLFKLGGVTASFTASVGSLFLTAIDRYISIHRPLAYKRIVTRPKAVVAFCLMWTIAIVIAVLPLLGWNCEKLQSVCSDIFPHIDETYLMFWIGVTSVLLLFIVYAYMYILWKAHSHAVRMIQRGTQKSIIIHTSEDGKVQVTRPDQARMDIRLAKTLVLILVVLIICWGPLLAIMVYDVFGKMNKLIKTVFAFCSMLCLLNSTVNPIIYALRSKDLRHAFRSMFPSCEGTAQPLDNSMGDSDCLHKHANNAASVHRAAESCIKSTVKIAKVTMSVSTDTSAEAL

| Compound | percentages of inhibition [1] [%] | percentage inhibition [2] [%] | melting point [°C] | IC50 [3] [nM] |
| --- | --- | --- | --- | --- |
| CS(=O)(=O)N(c1cccc(C(=O)Nc2ccon2)c1)C1CN(C(c2ccc(Cl)cc2)c2ccc(Cl)cc2)C1 [Compound 5, 3-[{1-[bis(4-chlorophenyl)methyl]azetidin-3-yl}(methylsulphonyl)amino]-N-(isoxazol-3-yl)-benzamide] | 82 | 28 | 218 | 6 |
| CS(=O)(=O)N(c1cccc(C(=O)Nc2ccccn2)c1)C1CN(C(c2ccc(Cl)cc2)c2ccc(Cl)cc2)C1 [Compound 7, 3-[{1-[Bis(4-chlorophenyl)methyl]azetidin-3-yl}(methylsulphonyl)amino]-N-(pyridin-2-yl)benzamide] | 68 | 32 | 202 |  |
